# Results reported in the supplement of paper PMC12463676, “Small-molecule dissolution of stress granules by redox modulation benefits ALS models” (Nature Chemical Biology, 2025).
# Legend:
# [1] = compound: NC(=O)CCCCC1CCSS1 [lipoamide]; assay: thermal stability z-score vs DMSO; higher = more thermally stabilized by treatment; conditions: HeLa, lipoamide concentration 100 µM
# Description: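 Cellular thermal proteome profiling in HeLa cells. Cells were treated with 100 µM lipoamide for 1 h, with or without 1 mM arsenate for a further 1 h, then heated to ten temperatures (37-66.3 °C), and soluble protein was quantified by TMT mass spectrometry relative to 0.1% DMSO controls. The thermal stability score (sum of log2 fold changes minus the abundance score) was transformed to a z-score; mean of n = 3 experiments.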
# [2] = compound: O=[As]([O-])(O)O.[K+] [potassium arsenate]; assay: as above; conditions: HeLa; arsenate concentration 1 mM
# Description: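 Cellular thermal proteome profiling in HeLa cells treated with 1 mM arsenate for 1 h (DMSO pretreatment), heated to ten temperatures (37-66.3 °C). Soluble protein was quantified by TMT mass spectrometry relative to DMSO controls; the thermal stability score was transformed to a z-score; mean of n = 3 experiments.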
# [3] = arsenate co-treatment: 1 mM arsenate 1 h
# 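Further: each temperature applied for 3 min, abundance score taken as mean log2 fold change at the two lowest temperatures, z-score obtained by mean subtraction and division by SD.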
# Sequence of UniProt Q8TEB1 (Q8TEB1 whole entry): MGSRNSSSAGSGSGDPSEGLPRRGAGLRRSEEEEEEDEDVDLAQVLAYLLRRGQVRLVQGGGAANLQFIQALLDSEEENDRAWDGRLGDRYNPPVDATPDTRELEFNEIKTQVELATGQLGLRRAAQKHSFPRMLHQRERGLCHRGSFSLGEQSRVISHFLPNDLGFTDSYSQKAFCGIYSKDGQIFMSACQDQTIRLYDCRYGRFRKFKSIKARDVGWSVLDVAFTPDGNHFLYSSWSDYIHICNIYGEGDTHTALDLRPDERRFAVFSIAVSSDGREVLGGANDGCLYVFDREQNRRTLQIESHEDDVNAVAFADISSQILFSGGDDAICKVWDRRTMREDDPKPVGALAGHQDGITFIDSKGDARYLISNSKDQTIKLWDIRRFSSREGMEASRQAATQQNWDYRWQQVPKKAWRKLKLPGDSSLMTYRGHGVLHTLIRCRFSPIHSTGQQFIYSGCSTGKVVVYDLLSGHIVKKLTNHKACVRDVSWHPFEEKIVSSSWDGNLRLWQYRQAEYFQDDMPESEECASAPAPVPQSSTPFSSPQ
# Sequence of UniProt Q8TB36 (Q8TB36 whole entry): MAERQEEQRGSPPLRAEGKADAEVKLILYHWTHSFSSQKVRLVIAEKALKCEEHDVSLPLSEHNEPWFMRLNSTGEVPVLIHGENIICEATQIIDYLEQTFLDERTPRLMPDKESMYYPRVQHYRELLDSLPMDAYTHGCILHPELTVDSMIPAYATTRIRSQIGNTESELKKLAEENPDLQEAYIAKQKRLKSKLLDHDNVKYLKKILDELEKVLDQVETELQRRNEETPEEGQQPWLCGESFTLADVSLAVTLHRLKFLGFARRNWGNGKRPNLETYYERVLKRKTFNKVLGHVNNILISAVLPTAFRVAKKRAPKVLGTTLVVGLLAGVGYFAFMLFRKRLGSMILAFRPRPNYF
# Sequence of UniProt P52569 (P52569 whole entry): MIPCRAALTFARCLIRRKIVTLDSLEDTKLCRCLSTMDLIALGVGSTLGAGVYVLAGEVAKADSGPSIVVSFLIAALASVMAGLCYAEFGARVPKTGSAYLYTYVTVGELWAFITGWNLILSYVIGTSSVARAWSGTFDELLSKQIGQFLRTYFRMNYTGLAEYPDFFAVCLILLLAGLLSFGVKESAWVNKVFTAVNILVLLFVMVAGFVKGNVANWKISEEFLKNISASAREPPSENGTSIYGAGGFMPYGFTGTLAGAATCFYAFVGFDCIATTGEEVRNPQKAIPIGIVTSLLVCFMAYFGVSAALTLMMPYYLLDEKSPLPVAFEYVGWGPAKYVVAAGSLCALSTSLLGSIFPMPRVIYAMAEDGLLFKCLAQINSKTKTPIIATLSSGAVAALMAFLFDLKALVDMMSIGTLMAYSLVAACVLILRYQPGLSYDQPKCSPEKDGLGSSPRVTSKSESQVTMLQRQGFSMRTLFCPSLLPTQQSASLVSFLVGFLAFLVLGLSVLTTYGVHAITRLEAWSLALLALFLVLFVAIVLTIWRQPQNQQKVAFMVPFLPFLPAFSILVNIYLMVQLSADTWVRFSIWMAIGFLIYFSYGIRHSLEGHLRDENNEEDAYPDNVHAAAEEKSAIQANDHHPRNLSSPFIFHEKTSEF
# Sequence of UniProt Q6Y1H2 (Q6Y1H2 whole entry): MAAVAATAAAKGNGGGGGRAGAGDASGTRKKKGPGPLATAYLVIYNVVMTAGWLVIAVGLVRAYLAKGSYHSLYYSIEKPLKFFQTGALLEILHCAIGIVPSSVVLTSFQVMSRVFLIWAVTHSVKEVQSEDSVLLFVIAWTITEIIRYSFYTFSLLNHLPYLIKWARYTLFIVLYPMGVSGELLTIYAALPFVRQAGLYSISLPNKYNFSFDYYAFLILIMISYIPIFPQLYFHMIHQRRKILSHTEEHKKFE
# Sequence of UniProt O43776 (O43776 whole entry): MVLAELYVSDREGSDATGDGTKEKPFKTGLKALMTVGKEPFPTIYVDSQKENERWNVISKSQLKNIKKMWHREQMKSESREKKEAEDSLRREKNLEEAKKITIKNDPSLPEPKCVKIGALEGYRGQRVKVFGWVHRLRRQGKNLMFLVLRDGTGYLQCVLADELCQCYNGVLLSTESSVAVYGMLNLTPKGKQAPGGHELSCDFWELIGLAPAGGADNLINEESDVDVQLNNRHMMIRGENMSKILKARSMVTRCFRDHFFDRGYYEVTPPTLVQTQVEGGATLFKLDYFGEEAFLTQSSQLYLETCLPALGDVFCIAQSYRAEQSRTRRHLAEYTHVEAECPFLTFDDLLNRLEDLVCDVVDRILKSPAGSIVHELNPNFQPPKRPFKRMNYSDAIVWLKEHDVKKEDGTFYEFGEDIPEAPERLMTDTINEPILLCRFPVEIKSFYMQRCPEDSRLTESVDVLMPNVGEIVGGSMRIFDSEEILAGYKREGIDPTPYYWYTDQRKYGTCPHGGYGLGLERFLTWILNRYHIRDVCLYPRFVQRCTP
# Sequence of UniProt O75208 (O75208 whole entry): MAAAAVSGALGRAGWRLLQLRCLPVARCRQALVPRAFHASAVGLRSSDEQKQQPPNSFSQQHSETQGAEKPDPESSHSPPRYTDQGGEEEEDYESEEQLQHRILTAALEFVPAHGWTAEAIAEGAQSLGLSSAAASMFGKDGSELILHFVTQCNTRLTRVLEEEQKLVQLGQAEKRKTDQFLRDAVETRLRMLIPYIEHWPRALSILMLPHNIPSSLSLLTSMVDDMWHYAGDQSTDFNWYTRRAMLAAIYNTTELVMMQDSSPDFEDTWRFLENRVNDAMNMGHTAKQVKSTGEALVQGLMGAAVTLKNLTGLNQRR
# Sequence of UniProt Q9Y6D6 (Q9Y6D6 whole entry): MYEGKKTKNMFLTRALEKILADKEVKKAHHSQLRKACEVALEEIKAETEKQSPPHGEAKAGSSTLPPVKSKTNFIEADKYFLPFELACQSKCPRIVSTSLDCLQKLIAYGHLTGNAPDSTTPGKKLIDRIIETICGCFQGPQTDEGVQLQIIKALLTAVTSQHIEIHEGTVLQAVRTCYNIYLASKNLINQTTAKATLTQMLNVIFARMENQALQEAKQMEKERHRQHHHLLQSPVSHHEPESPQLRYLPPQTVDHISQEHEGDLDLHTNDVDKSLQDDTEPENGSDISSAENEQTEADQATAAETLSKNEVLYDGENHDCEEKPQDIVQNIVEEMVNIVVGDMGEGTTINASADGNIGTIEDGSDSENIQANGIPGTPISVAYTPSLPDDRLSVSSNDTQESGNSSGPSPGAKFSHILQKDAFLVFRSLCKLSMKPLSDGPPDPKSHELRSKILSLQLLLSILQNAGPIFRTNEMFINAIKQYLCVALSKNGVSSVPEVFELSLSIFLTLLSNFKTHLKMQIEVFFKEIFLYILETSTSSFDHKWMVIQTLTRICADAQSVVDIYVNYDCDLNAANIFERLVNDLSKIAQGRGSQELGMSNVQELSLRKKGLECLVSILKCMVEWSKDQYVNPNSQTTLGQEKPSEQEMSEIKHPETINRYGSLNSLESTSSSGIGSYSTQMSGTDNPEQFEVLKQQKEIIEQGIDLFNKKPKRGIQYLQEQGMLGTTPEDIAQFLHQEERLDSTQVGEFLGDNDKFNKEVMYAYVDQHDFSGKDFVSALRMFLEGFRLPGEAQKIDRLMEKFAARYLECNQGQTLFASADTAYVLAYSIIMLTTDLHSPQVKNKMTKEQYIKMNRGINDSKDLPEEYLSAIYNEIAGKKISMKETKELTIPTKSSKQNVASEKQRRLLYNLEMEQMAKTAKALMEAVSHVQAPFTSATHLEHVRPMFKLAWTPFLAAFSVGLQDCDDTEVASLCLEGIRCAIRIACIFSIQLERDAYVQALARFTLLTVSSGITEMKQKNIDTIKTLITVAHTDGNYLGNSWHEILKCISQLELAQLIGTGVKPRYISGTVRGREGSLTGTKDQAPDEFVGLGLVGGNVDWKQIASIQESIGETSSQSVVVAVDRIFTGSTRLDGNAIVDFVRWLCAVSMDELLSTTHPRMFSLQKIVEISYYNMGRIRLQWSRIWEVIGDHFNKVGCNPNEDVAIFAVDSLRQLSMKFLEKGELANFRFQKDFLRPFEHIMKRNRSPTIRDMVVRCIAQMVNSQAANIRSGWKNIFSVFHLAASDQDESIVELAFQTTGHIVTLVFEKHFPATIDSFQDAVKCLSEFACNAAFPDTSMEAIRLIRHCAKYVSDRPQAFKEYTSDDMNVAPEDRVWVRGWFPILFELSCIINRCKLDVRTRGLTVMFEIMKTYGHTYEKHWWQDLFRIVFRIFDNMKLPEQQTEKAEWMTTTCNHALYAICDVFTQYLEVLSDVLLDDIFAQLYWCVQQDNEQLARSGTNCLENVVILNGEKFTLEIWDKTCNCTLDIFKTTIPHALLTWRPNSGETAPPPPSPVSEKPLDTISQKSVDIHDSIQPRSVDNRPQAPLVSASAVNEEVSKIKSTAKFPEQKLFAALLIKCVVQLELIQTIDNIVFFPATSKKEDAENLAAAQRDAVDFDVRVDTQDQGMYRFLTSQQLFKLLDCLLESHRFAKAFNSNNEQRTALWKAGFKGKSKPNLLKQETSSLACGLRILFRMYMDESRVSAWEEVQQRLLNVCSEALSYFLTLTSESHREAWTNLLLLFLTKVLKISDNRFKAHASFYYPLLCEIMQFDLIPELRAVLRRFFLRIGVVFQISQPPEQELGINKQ
# Sequence of UniProt Q9Y3E7 (Q9Y3E7 whole entry): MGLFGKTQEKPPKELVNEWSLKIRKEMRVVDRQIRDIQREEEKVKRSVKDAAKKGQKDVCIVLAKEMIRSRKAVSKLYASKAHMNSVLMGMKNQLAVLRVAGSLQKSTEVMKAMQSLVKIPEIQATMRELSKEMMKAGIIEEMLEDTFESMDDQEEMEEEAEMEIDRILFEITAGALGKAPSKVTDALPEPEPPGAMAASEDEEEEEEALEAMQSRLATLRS
# Sequence of UniProt P31946 (P31946 whole entry): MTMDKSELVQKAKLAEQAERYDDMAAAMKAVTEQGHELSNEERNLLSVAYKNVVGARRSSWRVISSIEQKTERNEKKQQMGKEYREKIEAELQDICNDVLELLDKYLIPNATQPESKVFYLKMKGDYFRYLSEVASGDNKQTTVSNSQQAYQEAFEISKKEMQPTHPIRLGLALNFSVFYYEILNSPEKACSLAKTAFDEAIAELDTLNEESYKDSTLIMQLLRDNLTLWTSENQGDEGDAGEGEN
Target,"thermal stability z-score [1, 3]",thermal stability z-score ([1]; arsenate co-treatment: none),thermal stability z-score [2]
FAH (UniProt P16930),0.241,-0.125,-0.623
ERP29 (UniProt P30040),-0.51,-0.193,0.32
COPB2 (UniProt P35606),0.165,-0.0303,0.238
GNE (UniProt Q9Y223),0.652,0.274,0.317
AAAS (UniProt Q9NRG9),-0.373,-0.12,0.108
DCAF11 (UniProt Q8TEB1),0.101,0.343,-0.996
NAP1L1 (UniProt P55209),-0.552,-0.224,-0.164
PSMB3 (UniProt P49720),1.04,0.994,0.157
SLC4A1AP (UniProt Q9BWU0),0.445,0.341,-1.27
YWHAB (UniProt P31946),0.364,0.584,0.281
NCSTN (UniProt Q92542),-0.537,-0.624,-0.207
CD47 (UniProt Q08722),2.42,1.31,0.869
QDPR (UniProt P09417),0.36,0.387,-1.26
NUP43 (UniProt Q8NFH3),2.43,0.779,1.58
XIAP (UniProt P98170),-0.12,-0.0464,-0.747
KIAA1468 (UniProt Q9P260),0.284,0.0862,-0.0466
ISOC1 (UniProt Q96CN7),1.2,1.14,8.79
RABGGTB (UniProt P53611),0.508,-0.0991,1.46
CCT8 (UniProt P50990),-0.0223,-0.0937,-0.245
HACD1 (UniProt B0YJ81),-0.754,-1.15,-0.388
MFSD12 (UniProt Q6NUT3),-0.485,-1.79,1.14
ARFGEF1 (UniProt Q9Y6D6),-0.0608,-0.273,-0.154
SGPL1 (UniProt O95470),0.442,0.255,-0.584
COX7A2L (UniProt O14548),0.761,0.522,-0.221
DTX2 (UniProt Q86UW9),-0.228,0.0239,-0.381
RASA1 (UniProt P20936),0.447,0.753,1.15
COQ9 (UniProt O75208),-0.364,-0.531,1.61
EZH2 (UniProt Q15910),-0.0218,-0.132,-0.158

Target,"thermal stability z-score [1, 3]",thermal stability z-score ([1]; arsenate co-treatment: none),thermal stability z-score [2]
CYBA (UniProt P13498),0.0672,0.232,0.653
ARPC1B (UniProt O15143),-0.0473,-0.175,-0.0161
NARS (UniProt O43776),-0.596,-0.292,1.17
WDR92 (UniProt Q96MX6),-0.0904,-0.202,0.368
KIF14 (UniProt Q15058),0.0801,0.0434,-0.00998
CYLD (UniProt Q9NQC7),-0.238,0.0192,0.144
LRRC42 (UniProt Q9Y546),-0.294,-0.0469,-0.0558
PDE4DIP (UniProt Q5VU43),0.0302,-0.0224,-0.0411
FNTA (UniProt P49354),-0.0233,-0.0253,0.355
TCEB3 (UniProt Q14241),-0.0069,0.00902,0.0043
PCCB (UniProt P05166),0.673,-0.198,-0.873
HACD2 (UniProt Q6Y1H2),-0.673,-0.4,0.798
NVL (UniProt O15381),-0.0288,-0.0652,0.0113
ACSS2 (UniProt Q9NR19),0.198,0.512,-0.517
NEMF (UniProt O60524),-0.153,-0.18,0.135
DGCR14 (UniProt Q96DF8),-0.552,0.06,0.724
ITPRIP (UniProt Q8IWB1),-0.976,-0.936,-0.289
CHMP3 (UniProt Q9Y3E7),0.271,0.481,0.291
GDA (UniProt Q9Y2T3),0.244,0.292,0.0168
SLC7A2 (UniProt P52569),0.412,-0.0842,0.647
SPG21 (UniProt Q9NZD8),-0.161,0.136,0.634
ATF1 (UniProt P18846),1.13,1.84,-0.0555
AP3M1 (UniProt Q9Y2T2),0.0419,0.0205,0.418
CSTB (UniProt P04080),0.399,0.0839,0.59
MIER1 (UniProt Q8N108),1.22,1.38,0.0984
UniProt F5H5P2|BCKDHA,-0.168,-0.738,0.969
GDAP1 (UniProt Q8TB36),-0.141,-0.313,-0.354
